Consider 1 compound from patent publication US20260315484A1, “METHODS OF TREATING CANCER IN BCL2 INHIBITOR NAIVE SUBJECTS” (Curis, Inc., priority 2023, published 2026).

Data set [1] relates to bone marrow (BM) blasts. Briefly: Clinical study of change in bone marrow blasts, BLC2 inhibitor naive vs prior-exposed patients. It counts as in vivo, human patients. The source says:
FIG. 1A is a graph showing the results of a clinical study for the efficacy of emavusertib (Compound 1) administration on reducing bone marrow (BM) blasts in patients with blood cancer. Blasts are immature white blood cells that are usually found in small numbers in healthy bone marrow. High levels of blasts circulating in the blood are associated with cancer. This clinical study measured the change in blast levels before and after receiving Compound 1 treatment. Here, the relative change in blast levels before and after Compound 1 is compared between patients who had previously received BLC2 inhibitors in prior treatment and patients who were naïve to BLC2 inhibitors. The comparison groups each contain 22 high risk myelodysplastic syndrome (hrMDS) patients and 10 acute myeloid leukemia (AML) patients.
FIG. 1B is a graph showing baseline and best post-treatment blast levels of the subjects in FIG. 1A. […] Each patient is shaded according to their diagnosis, with high-risk myelodysplastic syndrome (MDS) patients tending to have lower blast levels than acute myeloid leukemia (AML) patients.
To support the development of effective treatment regimens with Compound 1, a study was conducted to monitor bone marrow (BM) samples obtained from AML and high risk MDS patients with different prior histories of treatment.
• Pharmacokinetic parameters of Compound 1 measured by Cmax, Cmin, Tmax, AUC0-24, AUC0-inf, and T1/2 (time frame 24 months) • Clinical response in AML or hrMDS assessed as follows: • AML: • Proportion of patients who reach CR+CRh • Proportion of patients who reach CRi, or CR or CRh • hrMDS: overall response rate of CR+PR+mCR • Transfusion independence
This is a Phase 1, open-label dose escalation and cohort expansion study of Compound 1 as a monotherapy in patients with AML or MDS and in combination with AZA in treatment-naïve, adult patients with AML or hrMDS, after first line therapy.

Data set [2] is described as follows: Study Compound 1-101 (safety, exposure, activity at 200 mg BID). It counts as in vivo. From the text: Three patients with AML or MDS will be enrolled at the designated dose. If none of the first 3 patients experience a dose-limiting toxicity during the first cycle, patients may be enrolled into the next higher dose level. If 1 patient out of the first 3 experiences a dose-limiting toxicity, the dose level may be expanded with an additional 3 patients.

For data set [3], the system named is AML and high-risk MDS. Briefly: Ongoing Phase 1 study in relapsed/refractory AML and high-risk MDS. The conditions noted are these: patients with relapsed/refractory AML and high-risk MDS. It counts as in vivo, human patients. As to the method:
To support the development of effective treatment regimens with Compound 1, a study was conducted to monitor bone marrow (BM) samples obtained from AML and high risk MDS patients with different prior histories of treatment. […]
• MTD (defined as the highest dose at which there is <33% dose-limiting toxicity rate in the first cycle of treatment in a minimum of 6 patients [time frame: 28 days]) • RP2D (determined by the Sponsor in consultation with the CSC, considering all aspects of safety, tolerability, biologic activity, pharmacokinetic and preliminary efficacy in the trial population [time frame: 24 months]) • Safety measured by adverse events, ECGs, chemistry and hematology laboratory values, vital signs, and physical examinations […]
• Pharmacokinetic parameters of Compound 1 measured by Cmax, Cmin, Tmax, AUC0-24, AUC0-inf, and T1/2 (time frame 24 months) • Clinical response in AML or hrMDS assessed as follows: • AML: • Proportion of patients who reach CR+CRh • Proportion of patients who reach CRi, or CR or CRh • hrMDS: overall response rate of CR+PR+mCR • Transfusion independence […]

As for `Cc1cc(-c2nc(C(=O)Nc3cc4oc(N5CCOCC5)nc4nc3N3CC[C@@H](O)C3)co2)ccn1` [Compound 1], in data set [1] (AML and high risk MDS, no history of BLC2 inhibitor treatment vs prior exposure), the “rate of response to Compound 1, as evidenced by reduced BM blast counts” value was “higher rate of response to Compound 1, as evidenced by reduced BM blast counts in hematology, compared to patients who had prior exposure to a BLC2 inhibitor”. Also, the “decrease in bone marrow blast counts from baseline to best post-baseline” value in data set [1] (no prior vs prior BLC2 inhibitor exposure, hrMDS and AML patients, FIG. 1B) is listed as “significantly higher decreases in bone marrow blast counts from baseline to best post-baseline compared to those subjects with prior BLC2 inhibitor exposure”. The “relative change in bone marrow blast levels before and after Compound 1” value in data set [1] (patients naive to BLC2 inhibitors (e.g., venetoclax) vs previously exposed, comparison groups each 22 hrMDS and 10 AML, FIG. 1A) is given as “significant reduction in blasts compared to those who had been previously exposed to BLC2 inhibitors”. Besides, in data set [2], the “biologic activity and clinical efficacy” value is “demonstrating signs of biologic activity and clinical efficacy”; the drug exposure result is given as “capable of achieving relevant levels of drug exposure”; the “safety of starting dose” value is “safe”. The clinical activity entry in data set [3] is recorded as “demonstrated clinical activity”.
